Test results as given in publication PMC6934184, “Selective DNA-PKcs inhibition extends the therapeutic index of localized radiotherapy and chemotherapy” (The Journal of Clinical Investigation, 2019).

Biological target: T1, LYN A (Homo sapiens, UniProt P07948)
T1 construct: purchased Thermo Fisher Scientific (Life Technologies) SelectScreen
Test: SelectScreen Z'LYTE
Type: biochemical
Method in brief: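 Percent values come from Thermo SelectScreen profiling of NU5455, combining activity and binding assays. CSF1R was run in Z'LYTE format at Km app ATP, and CAMK1 in Adapta format with ATP listed at 10.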

T1 sequence (P07948 whole entry): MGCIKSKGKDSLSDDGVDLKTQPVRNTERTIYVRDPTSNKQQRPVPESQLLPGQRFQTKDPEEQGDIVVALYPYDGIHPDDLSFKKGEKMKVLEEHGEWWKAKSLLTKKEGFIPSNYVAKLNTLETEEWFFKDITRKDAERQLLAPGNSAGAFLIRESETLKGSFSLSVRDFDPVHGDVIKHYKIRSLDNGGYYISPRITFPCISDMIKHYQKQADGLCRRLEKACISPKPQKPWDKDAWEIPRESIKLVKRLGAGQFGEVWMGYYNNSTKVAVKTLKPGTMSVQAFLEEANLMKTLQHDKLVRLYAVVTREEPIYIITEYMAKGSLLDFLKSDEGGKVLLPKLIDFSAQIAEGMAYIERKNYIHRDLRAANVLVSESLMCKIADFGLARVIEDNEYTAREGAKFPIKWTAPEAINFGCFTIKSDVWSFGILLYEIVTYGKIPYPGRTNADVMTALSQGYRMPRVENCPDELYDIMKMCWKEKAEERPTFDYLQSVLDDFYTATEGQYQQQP

For `CN(C(=O)CN1CCOCC1)c1ccc2sc3c(-c4cccc5c(=O)cc(N6CC7CCC(C6)O7)oc45)cccc3c2c1` [NU5455], the inhibition at 1 µM was 15.2%.
